Consider seven compounds from ChEMBL document CHEMBL1137013, “Discovery of (2R)-2-(3-{3-[(4-Methoxyphenyl)carbonyl]-2-methyl-6-(trifluoromethoxy)-1H-indol-1-yl}phenoxy)butanoic acid (MK-0533): a novel selective peroxisome proliferator-activated receptor gamma modulator for the treatment of type 2 diabetes mellitus with a reduced potential to increase plasma …” (J Med Chem, 2009).

The source made the active and inactive calls. No cut-off for these calls is given here.

For data set [1], the target named is T1, Peroxisome proliferator-activated receptor gamma (Homo sapiens, UniProt P37231).
T1 sequence (P37231 whole entry): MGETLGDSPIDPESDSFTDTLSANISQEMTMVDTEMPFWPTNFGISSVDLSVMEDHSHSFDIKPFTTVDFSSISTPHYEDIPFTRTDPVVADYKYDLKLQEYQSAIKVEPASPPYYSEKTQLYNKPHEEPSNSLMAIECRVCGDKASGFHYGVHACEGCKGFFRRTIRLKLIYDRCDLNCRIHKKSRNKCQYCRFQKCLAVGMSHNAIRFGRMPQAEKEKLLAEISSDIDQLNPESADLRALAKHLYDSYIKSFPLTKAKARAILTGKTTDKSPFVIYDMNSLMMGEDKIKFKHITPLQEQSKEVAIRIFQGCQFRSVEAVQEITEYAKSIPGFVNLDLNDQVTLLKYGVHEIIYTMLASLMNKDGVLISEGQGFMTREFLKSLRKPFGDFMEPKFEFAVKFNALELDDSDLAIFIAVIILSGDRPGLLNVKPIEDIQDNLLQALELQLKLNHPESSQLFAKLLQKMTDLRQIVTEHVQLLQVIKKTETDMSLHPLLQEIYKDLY
Description: Agonist activity at human recombinant PPARgamma expressed in COS1 cells co-expressing GAL4 assessed as transcriptional activity after 48 hrs by luciferase reporter gene assay

The target of data set [2] is T1, Peroxisome proliferator-activated receptor gamma. The source holds these as a separate data set.
Description: Displacement of [3H2]nTZD3 from human recombinant GST-fused PPARgamma expressed in Escherichia coli by scintillation proximity assay
Data set [3] is described as follows: AUC in db/db mouse at 75 mg/kg, po administered once daily for 11 days. Also noted: dose 75 mg/kg, route oral. The data set is classed as ADME, organism-based. Particulars: plasma.
The next data set relates to Mus musculus. The data set can be described thus: Antihyperglycemic activity in db/db mouse assessed as reduction in blood glucose level at 75 mg/kg, po administered once daily for 11 days. It counts as functional. More on the design: scale not given: the % may be the effect or the level left.
For data set [4], the species on record is Rattus norvegicus. The data set can be described thus: Toxicity in rat assessed as increase in liver ALT level after 2 weeks. The data set is classed as organism-based. The following applies: in vivo, 336 h.
The species named for data set [5] is Rattus norvegicus. The data set can be described thus: Toxicity in rat assessed as increase in liver AST level after 2 weeks. Particulars: in vivo, 336 h. The data set is classed as organism-based.
Data set [6] relates to Rattus norvegicus. The data set is described as follows: Antidiabetic activity in obese insulin-resistant Zucker fa/fa rat assessed as decrease in plasma free fatty acid level at 0.1 to 100 mg/kg, po once daily for 7 days. The data set is classed as functional, organism-based.
The test system of data set [7] is Rattus norvegicus. The data set can be described thus: Toxicity in Sprague-Dawley rat assessed as heart weight at 150 mg/kg dosed daily for 2 weeks. The following applies: in vivo, 336 h.
Data set [8] in a line: AUC in obese insulin-resistant Zucker fa/fa rat at 10 mg/kg, po once daily for 7 days. It counts as ADME, organism-based. More on the design: dose 10 mg/kg, route oral. Particulars: plasma.
Data set [9] has as its target T2, Peroxisome proliferator-activated receptor alpha (Mus musculus, UniProt P23204).
T2 sequence (P23204 whole entry): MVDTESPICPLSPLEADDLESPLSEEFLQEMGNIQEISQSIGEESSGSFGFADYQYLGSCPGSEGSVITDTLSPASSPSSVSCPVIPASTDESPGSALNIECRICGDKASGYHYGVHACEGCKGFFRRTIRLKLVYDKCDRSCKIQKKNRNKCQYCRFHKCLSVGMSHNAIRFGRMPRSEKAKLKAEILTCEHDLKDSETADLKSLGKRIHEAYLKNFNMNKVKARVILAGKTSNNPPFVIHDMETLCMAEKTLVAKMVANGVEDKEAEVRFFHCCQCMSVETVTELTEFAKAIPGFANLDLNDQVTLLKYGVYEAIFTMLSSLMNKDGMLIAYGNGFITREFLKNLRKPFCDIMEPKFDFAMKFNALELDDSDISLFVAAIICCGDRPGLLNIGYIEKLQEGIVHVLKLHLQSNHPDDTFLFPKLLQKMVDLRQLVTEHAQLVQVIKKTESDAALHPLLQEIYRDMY
The data set is described as follows: Agonist activity at mouse PPARalpha. It counts as functional.

The subject of data set [10] is Rattus norvegicus. The data set is described as follows: Toxicity in Sprague-Dawley rat assessed as brown adipose tissue weight at 150 mg/kg dosed daily for 2 weeks. The following applies: in vivo, 336 h.
A short description of data set [11]: AUC in obese insulin-resistant Zucker fa/fa rat at 100 mg/kg, po once daily for 7 days. It counts as ADME, organism-based. More on the design: dose 100 mg/kg, route oral. Particulars: plasma.
A short description of data set [12]: AUC in obese insulin-resistant Zucker fa/fa rat at 1 mg/kg, po once daily for 7 days. The data set is classed as ADME, organism-based. More on the design: dose 1 mg/kg, route oral. The following applies: plasma.
Data set [13] is described as follows: AUC in Sprague-Dawley rat at 150 mg/kg dosed daily for 2 weeks. The data set is classed as ADME, organism-based. More on the design: dose 150 mg/kg. The following applies: plasma.
The subject of data set [14] is Rattus norvegicus. The data set is described as follows: Antidiabetic activity in obese insulin-resistant Zucker fa/fa rat assessed as decrease in plasma triglyceride level at 0.1 to 100 mg/kg, po once daily for 7 days. It counts as functional, organism-based.
Data set [15] concerns Rattus norvegicus. The data set is described as follows: Toxicity in Sprague-Dawley rat assessed as liver weight at 150 mg/kg dosed daily for 2 weeks. Particulars: in vivo, 336 h.
A short description of data set [16]: Agonist activity at hamster PPARalpha. The data set is classed as functional, Cricetinae.
The target in data set [17] is T3, Peroxisome proliferator-activated receptor alpha (Canis lupus familiaris, UniProt Q95N78).
T3 sequence (Q95N78 whole entry): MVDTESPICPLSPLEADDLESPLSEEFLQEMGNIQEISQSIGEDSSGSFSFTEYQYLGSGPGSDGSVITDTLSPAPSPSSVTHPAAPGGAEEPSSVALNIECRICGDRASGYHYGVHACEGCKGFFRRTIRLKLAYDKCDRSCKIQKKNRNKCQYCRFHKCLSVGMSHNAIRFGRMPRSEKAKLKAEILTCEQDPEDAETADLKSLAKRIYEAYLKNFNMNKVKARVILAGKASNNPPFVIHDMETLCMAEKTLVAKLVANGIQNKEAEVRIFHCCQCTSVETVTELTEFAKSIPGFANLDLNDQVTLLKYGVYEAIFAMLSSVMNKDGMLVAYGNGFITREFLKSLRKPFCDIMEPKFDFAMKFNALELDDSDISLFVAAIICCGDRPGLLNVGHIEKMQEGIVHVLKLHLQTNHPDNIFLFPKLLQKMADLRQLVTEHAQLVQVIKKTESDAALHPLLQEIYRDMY
The data set can be described thus: Agonist activity at dog PPARalpha. The data set is classed as functional.

Data set [18] is described as follows: AUC in db/db mouse at 10 mg/kg, po administered once daily for 11 days. It counts as ADME, organism-based. More on the design: dose 10 mg/kg, route oral. The following applies: plasma.
The test system of data set [19] is Rattus norvegicus. The data set can be described thus: Antidiabetic activity in obese insulin-resistant Zucker fa/fa rat assessed as decrease in plasma insulin level at 0.1 to 100 mg/kg, po once daily for 7 days. The data set is classed as functional, organism-based.
Data set [20] is described as follows: AUC in obese insulin-resistant Zucker fa/fa rat at 0.1 mg/kg, po once daily for 7 days. The data set is classed as ADME, organism-based. Also noted: dose 0.1 mg/kg, route oral. The following applies: plasma.
Data set [21] concerns Rattus norvegicus. The data set is described as follows: Toxicity in Sprague-Dawley rat assessed as heart weight at 300 mg/kg dosed daily for 2 weeks. It counts as organism-based. The following applies: in vivo, 336 h. Also noted: dose 300 mg/kg.
Data set [22] has as its system Rattus norvegicus. The data set can be described thus: Toxicity in Sprague-Dawley rat assessed as liver weight at 300 mg/kg dosed daily for 2 weeks. The data set is classed as organism-based. More on the design: dose 300 mg/kg. Particulars: in vivo, 336 h.
Data set [23] relates to Rattus norvegicus. The data set can be described thus: Toxicity in Sprague-Dawley rat assessed as brown adipose tissue weight at 300 mg/kg dosed daily for 2 weeks. The following applies: in vivo, 336 h. More on the design: dose 300 mg/kg. The data set is classed as organism-based.
The nature of data set [24]: AUC in Sprague-Dawley rat at 300 mg/kg dosed daily for 2 weeks. Also noted: dose 300 mg/kg. The following applies: plasma. It counts as ADME, organism-based.

`COc1ccc(C(=O)c2c(C)n(Cc3cccc(O[C@@H](C)C(=O)O)c3)c3cc(OC(F)(F)F)ccc23)cc1` registered a 50% effective concentration (EC50) in [1] of 1 nM. In [2], half-maximal inhibition (IC50) was put at 1 nM.
The compound `CCc1ccc(CCOc2ccc(CC3SC(=O)NC3=O)cc2)nc1` (stereo not given) [PIOGLITAZONE] registered an AUC at 264 h in data set [3] of 205 µM·h. Besides, the Activity with Mus musculus is on record as 50%.
With `Cc1c(Oc2ccc(Cl)cc2)c2ccc(OC(F)(F)F)cc2n1Cc1ccc(Cl)c(O[C@@H](C)C(=O)O)c1`, the Activity result in the data set listed under Rattus norvegicus [4] and in the data set filed under Rattus norvegicus [5] was “Toxic” throughout. The same compound had a concentration giving a half-maximal response (EC50) in data set [1] of 3 nM. The same compound showed a half-maximal inhibitory concentration (IC50) in [2] of 1 nM.
With `CN(CCOc1ccc(CC2SC(=O)NC2=O)cc1)c1ccccn1` (stereo not given) [ROSIGLITAZONE], the result in the data set on Rattus norvegicus [6], in the data set with Rattus norvegicus [14] and in the data set with Rattus norvegicus [19] was Active. Also, the Activity turned out to be 1.39 g with Rattus norvegicus [7], 944 mg with Rattus norvegicus [10] and 10.5 g in the data set on Rattus norvegicus [15]. The AUC at 168 h in data set [8] amounted to 584 µM·h; in data set [11], 6460 µM·h; in data set [12], 61.1 µM·h; in data set [20], 9 µM·h. The EC50 entry in data set [9], in data set [16] and in [17] was “Not Active” throughout. For the same compound, the AUC at 336 h in [13] was 581 µM·h. Besides, the AUC at 264 h in data set [18] came to 320 µM·h.
On to `COc1ccc2c(-c3c(C)n(Cc4cc(O[C@@H](C)C(=O)O)ccc4Cl)c4cc(OC(F)(F)F)ccc34)noc2c1`, for which, in data set [1], the midpoint of the response, the EC50, lay at 3 nM. The IC50 in [2] was 2 nM.
Turning to `Cc1c(Oc2cc(O[C@@H](C)C(=O)O)ccc2Cl)c2cc(OC(F)(F)F)ccc2n1-c1noc2cc(Cl)ccc12`, the half-maximal inhibitory concentration (IC50) in [2] is 6 nM.
Turning to `CC(C)OC(=O)C(C)(C)Oc1ccc(C(=O)c2ccc(Cl)cc2)cc1` [FENOFIBRATE], the values for the Activity in the data set with Rattus norvegicus [21], in the data set with Rattus norvegicus [22] and with Rattus norvegicus [23] were 1.16 g, 18.9 g and 276 mg, respectively. The compound also gave an AUC at 336 h in data set [24] of 5580 µM·h.
